According to US20230159509A1 (Amathus Therapeutics, Inc., priority 2020, published 2023):

Experiments:
[1] = target: T1, nanoLuc TRAP1 in SHSY5Y cells (Homo sapiens, UniProt Q12931); assay: NanoBRET in-cell target engagement assay; type: cell-based
T1 construct: expressed in transfected cells; host or cells: SHSY5Y cells, transient transfection with FuGENE HD
T1 sequence (Q12931 60-704): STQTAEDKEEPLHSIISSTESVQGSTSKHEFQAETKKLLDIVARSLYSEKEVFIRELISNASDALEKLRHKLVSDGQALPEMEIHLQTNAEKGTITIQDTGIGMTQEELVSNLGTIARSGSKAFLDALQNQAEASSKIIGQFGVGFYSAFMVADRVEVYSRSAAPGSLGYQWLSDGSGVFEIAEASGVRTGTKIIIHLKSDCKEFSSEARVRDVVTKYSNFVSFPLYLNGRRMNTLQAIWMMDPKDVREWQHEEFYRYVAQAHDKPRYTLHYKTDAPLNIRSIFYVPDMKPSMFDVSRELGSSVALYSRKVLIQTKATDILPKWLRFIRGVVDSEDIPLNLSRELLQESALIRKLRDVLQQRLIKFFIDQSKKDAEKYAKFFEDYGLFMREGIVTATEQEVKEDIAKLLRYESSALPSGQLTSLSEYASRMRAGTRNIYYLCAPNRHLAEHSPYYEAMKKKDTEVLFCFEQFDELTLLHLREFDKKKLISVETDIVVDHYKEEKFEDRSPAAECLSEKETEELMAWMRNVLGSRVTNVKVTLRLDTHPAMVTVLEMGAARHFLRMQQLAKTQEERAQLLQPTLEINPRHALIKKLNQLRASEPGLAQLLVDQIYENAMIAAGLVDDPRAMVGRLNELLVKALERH
Experimental: In-cell target engagement assays were performed as described in Robers M. B. et al. (2019) Quantitative, Real-Time Measurements of Intracellular Target Engagement Using Energy Transfer. In: Ziegler S., Waldmann H. (eds) Systems Chemical Biology. Methods in Molecular Biology, vol 1888. Humana Press, New York, N.Y.; Machleidt et al., ACS Chem. Biol. 2015, 10, 8, 1797-1804; or Vasta et al., Cell Chemical Biology 25, 206-214, Feb. 15, 2018; or as described herein.
Below is a protocol for transient transfection of SHSY5Y cells with NanoLuc® fusions. • 1. Cultivate SHSY5Y cells appropriately prior to assay in MEM w NEAA supplemented with 10% FBS. • 2. Remove medium from cell flask via aspiration, trypsinize, and allow cells to dissociate from the flask. • 3. Neutralize trypsin using growth medium and pellet cells via centrifugation at 200 g for 5 minutes. • 4. Aspirate medium and re-suspend cells into a single cell suspension using complete cell culture medium. • 5. Adjust the cell density to 300K/mL in cell culture medium in a sterile, conical tube. • 6. Prepare lipid:DNA complexes as follows (this covers two assay plates, adjust numbers for more plates) • a. Prepare a 10 μg/mL solution of DNA in Opti-MEM without serum. This solution should contain the following ratios of carrier DNA and DNA encoding NanoLuc® fusion. • i. 5.0 μg/mL of Transfection Carrier DNA (pGEM) • ii. […]

[2] = system: primary rat dopaminergic TH-positive neurons; assay: ROS production and neurite network in primary rat dopaminergic TH-positive neurons injured with MPP+ or 6-OHDA; type: cell-based

SMILES: COc1ncc(NC(=O)c2csc(-c3ccccc3)n2)cc1S(=O)(=O)Nc1c(C)cccc1C [compound 1178]
- displacement of fluorescent nanoBRET tracer (probe-385) from nanoLuc TRAP1 ([1]; SHSY5Y cells, tracer titration, compound 20 PM, FIG. 13): displacement of the tracer
- displacement of nanoBRET tracer (probe-385) from nanoLuc TRAP1, concentration response ([1]; live SHSY5Y cells, tracer 1 μM, FIG. 14): displacing the nanoBRET tracer molecule
- neurite network of primary rat TH+ dopaminergic neurons ([2]; injured with MPP+ (4 μM, 24 h), FIG. 4): protection of the neurite network
- neurite network of primary rat TH+ dopaminergic neurons ([2]; injured with MPP+ (4 μM, 48 h), FIG. 5): protection of neurite network
- ROS production in primary rat dopaminergic neurons ([2]; injury with 6-OHDA (20 μM, 4 h), FIG. 8): reduction in ROS
- ROS production in primary rat dopaminergic neurons ([2]; injury with MPP+ (4 μM, 4 h), FIG. 2): reduction of reactive oxygen species (ROS)
- ROS production in rat primary mesencephalic culture ([2]; injury with MPP+ (4 μM, 4 h), FIG. 3): reduction ROS
